Measurements taken from publication PMC13087252, “A CXCR4 targeting peptide delivered by silica nanoparticles eliminates migrating cancer stem cells in pancreatic ductal adenocarcinoma” (Scientific Reports, 2026).

Tests used:
[1] = test system: Panc354; assay: Transwell migration assay towards CXCL12 (serum-free, B27); format: cell-based, human; settings: 8 μm pore inserts, CXCL12 10 nM as chemoattractant, 30 min peptide pre-treatment, 24 h, B27 as serum substitute, dose-dependent, largest suppression, n = 3
Method: Migration assays were performed using inserts with 8μm pore size PET membranes (Corning, 353,097). Serum (10% FBS) or CXCl12 (10nM) was used in the companion plates as chemoattractant. After 24 h, invaded cells were fixed with 4% PFA and stained with DAPI (Merck, 10,236,276,001). Ten random 10 × fields were chosen and photographed (Keyence), and the pictures were quantified using ImageJ (RRID:SCR_003070).
The CXCL12 – CXCR4 axis regulates a bidirectional tumor-stromal signaling loop that ultimately promotes CSCs and miCSCs and their metastatic and chemoresistant phenotypes. Therefore, targeting CXCR4 may provide a significant improvement in the anticancer therapeutic efficacy. The Endogenous Peptide Inhibitor of CXCR4 (EPI-X4) is a natural antagonist of CXCR4, previously discovered in a human peptide library screen. […]
(§1) (A) Migration assays towards CXCL12 using Panc354 for EPI-X4 and its derivatives at depicted concentrations. […] (D) Quantifications of percent mesenchymal structures after 15 min and 6 h of CXCL12 treatment in MetPO1 cells. […] Intensity ratios (IR) calculated against control lane using ImageJ. […] Quantification of cell viability and representative pictures for clonogenic assays after treatment with JM#21 (10 μM), gemcitabine (Gem) for indicated concentrations as depicted in experimental design in MetPO1 cell line. […]

[2] = test system: CD133+ CSCs in Panc354 and MetPO1 cells; assay: Flow cytometry for CD133 after combination treatment; format: cell-based, human; settings: flow cytometry after 12 days of treatment, fold change
Method: For surface protein staining, 1 × 10^6 cells were resuspended in 100µl ice-cold FACS buffer supplemented with 6 µl Gamunex for 15 min at 4 °C. Cells were then incubated with CD133 (PE, Miltenyi Biotec, #130-113-108, RRID: AB_2725937) and CXCR4 (APC, eBioscience, #17-9999-42, RRID: AB_1724113) antibodies or an appropriate isotype control for 30 min at 4 °C. After a PBS wash, cells were resuspended in 500µl of ice-cold FACS buffer with DAPI in FACS tubes for analysis.
as §1
We then evaluated the therapeutic potential of JM#21. […] Since we have previously shown the role of CSCs in chemoresistance and the benefit of combination therapy for PDAC in vitro and in vivo[6],[38]–[40], we proceeded to evaluate the role of CSCs in the above-mentioned combination treatment and used flow cytometry to quantify CD133 + CSCs after 12 days of treatment (Fig. 5J, Supp. Figure 3I). […]

Compound	suppression of CXCL12-induced migration [1]	CD133+ population in relapsed cells [2]
EPI-X4: Endogenous Peptide Inhibitor of CXCR4, a natural antagonist of CXCR4 from a human peptide library screen (PQNLIKQNCELFEQLG; UniProt P02768 408-423, looked up, fragment)	approx. 50%	–
Nc1ccn([C@@H]2O[C@H](CO)[C@@H](O)C2(F)F)c(=O)n1 [gemcitabine]	–	significant increase
